Article PMC5193075 (The Journal of Pharmacology and Experimental Therapeutics, 2017)

Key:
[1] = tested on: cryopreserved human primary hepatocytes; assay: Drug depletion; conditions: for interdonor variability in unbound intrinsic clearance (IDV): individual-donor data; for interdonor variability in unbound intrinsic clearance (IDV) / interwell variability in unbound intrinsic clearance (IWV): parentheses = relative standard error; for CLint(u) ratio individual-donor/pooled hepatocytes: parentheses = 95% confidence intervals (Fieller's theorem)
[2] = Unbound drug fraction in cell culture medium by rapid equilibrium dialysis; format: in vitro ADME; conditions: bovine, bovine serum albumin-containing cell culture medium
[3] = Prediction of in vivo hepatic clearance from liver MPS data; parameters: species or system human
[4] = individual-donor data (within donor)

SMILES | interdonor variability in unbound intrinsic clearance (IDV) [1] | fraction unbound [2] | interwell variability in unbound intrinsic clearance (IWV) [1, 4] | interdonor variability in unbound intrinsic clearance (IDV) ([1]; listed as phenacetin) | CLint(u) ratio individual-donor/pooled hepatocytes [1] | interwell variability in unbound intrinsic clearance (IWV) ([1]; pooled hepatocytes data) | fold-error (underprediction) of in vivo hepatic clearance ([3]; parallel tube (PT) liver model) | fold-error (underprediction) of in vivo hepatic clearance ([3]; well stirred (WS) liver model)
O=C(O)Cc1ccccc1Nc1c(Cl)cccc1Cl [Diclofenac, diclofenac] | 36.2% (71.5%) CV% | 0.13 | – | – | – | – | – | –
CC(C)Cc1ccc(C(C)C(=O)O)cc1 (stereo not shown) [Ibuprofen, ibuprofen] | – | 0.31 | – | – | – | – | – | –
CCOc1ccc(NC(C)=O)cc1 [Phenacetin, phenacetin] | 24.1% (80.4%) CV% | 0.98 | 26.1% (65.2%) CV% | 24.1 CV% | 0.92 (0.61, 1.47) | 30.7% (41.5%) CV% | 1.7 fold | 2.1 fold
C[C@]12C=CC(=O)C=C1CC[C@@H]1[C@@H]2[C@@H](O)C[C@@]2(C)[C@H]1CC[C@]2(O)C(=O)CO [Prednisolone, prednisolone] | 29.3% (58.1%) CV% | 0.94 | 21.5% (70.0%) CV% | – | 0.89 (0.63, 1.16) | – | – | –
CC(C)NCC(O)COc1cccc2ccccc12 (stereo not shown) [Propranolol, propranolol] | – | 0.98 | – | – | – | – | – | –
